In general, IC50 refers to the concentration that gives 50% inhibition.

A value given as a limit tells only on which side of the number the result lay.

From patent US11279707B2, “NEK inhibitors and methods of use” (DANA-FARBER CANCER INSTITUTE, INC., priority 2017, dated 2022) come the findings set out here.

Assay type in all cases: biochemical
One test deals with T1, NEK2 (Homo sapiens, UniProt P51955).
T1 sequence (P51955 1-445): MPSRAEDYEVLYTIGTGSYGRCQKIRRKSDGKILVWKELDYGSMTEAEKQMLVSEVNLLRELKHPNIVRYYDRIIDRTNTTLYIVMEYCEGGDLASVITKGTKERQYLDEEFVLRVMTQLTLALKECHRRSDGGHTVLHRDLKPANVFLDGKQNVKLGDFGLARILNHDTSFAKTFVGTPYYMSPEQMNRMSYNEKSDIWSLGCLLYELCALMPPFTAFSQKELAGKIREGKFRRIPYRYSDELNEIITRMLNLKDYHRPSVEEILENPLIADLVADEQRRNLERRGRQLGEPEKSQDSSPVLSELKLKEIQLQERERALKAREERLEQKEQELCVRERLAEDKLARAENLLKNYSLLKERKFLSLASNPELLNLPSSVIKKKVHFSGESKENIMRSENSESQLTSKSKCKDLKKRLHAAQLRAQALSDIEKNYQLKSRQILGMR
Description: kinase inhibition, NEK2.

The target of another test is T2, NEK9 (Homo sapiens, UniProt Q8TD19).
T2 sequence (Q8TD19 1-979): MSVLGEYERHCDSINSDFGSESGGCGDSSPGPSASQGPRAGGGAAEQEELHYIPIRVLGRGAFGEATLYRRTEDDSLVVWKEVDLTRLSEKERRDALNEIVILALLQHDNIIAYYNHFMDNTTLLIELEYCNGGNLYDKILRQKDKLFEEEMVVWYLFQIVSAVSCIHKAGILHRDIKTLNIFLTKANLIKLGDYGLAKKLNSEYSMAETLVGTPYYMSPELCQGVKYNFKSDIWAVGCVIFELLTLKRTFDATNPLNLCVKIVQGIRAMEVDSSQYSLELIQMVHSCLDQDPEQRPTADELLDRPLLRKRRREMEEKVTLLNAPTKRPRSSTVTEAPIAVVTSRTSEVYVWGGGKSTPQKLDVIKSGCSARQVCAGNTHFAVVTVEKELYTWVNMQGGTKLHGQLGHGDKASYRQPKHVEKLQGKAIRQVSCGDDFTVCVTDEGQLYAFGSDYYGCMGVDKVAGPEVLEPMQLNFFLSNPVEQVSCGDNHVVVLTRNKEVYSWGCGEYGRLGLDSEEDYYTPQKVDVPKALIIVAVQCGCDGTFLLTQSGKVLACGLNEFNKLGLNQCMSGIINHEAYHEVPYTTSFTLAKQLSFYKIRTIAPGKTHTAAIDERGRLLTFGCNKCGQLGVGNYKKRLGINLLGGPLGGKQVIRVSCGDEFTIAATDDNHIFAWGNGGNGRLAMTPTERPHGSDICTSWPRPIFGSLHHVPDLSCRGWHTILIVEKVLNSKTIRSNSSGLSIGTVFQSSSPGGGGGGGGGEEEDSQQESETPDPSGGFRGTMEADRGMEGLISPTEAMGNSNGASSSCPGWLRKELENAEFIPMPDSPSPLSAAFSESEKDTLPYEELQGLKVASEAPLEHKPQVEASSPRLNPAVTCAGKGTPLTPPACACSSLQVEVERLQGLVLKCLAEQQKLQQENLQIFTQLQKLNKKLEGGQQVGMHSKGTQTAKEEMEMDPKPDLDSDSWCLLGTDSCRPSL
The test is described as follows: kinase inhibition, NEK9.

The target in another test is NEK6 (Homo sapiens, UniProt Q9HC98). Description: kinase inhibition, NEK6.
Another test has as its target NEK7 (Homo sapiens, UniProt Q8TDX7). Description: kinase inhibition, NEK7.
The next test deals with CLK. Description: kinase inhibition, CLK.
Another test has as its target T3, DMPK (Homo sapiens, UniProt Q09013).
T3 sequence (Q09013 1-629): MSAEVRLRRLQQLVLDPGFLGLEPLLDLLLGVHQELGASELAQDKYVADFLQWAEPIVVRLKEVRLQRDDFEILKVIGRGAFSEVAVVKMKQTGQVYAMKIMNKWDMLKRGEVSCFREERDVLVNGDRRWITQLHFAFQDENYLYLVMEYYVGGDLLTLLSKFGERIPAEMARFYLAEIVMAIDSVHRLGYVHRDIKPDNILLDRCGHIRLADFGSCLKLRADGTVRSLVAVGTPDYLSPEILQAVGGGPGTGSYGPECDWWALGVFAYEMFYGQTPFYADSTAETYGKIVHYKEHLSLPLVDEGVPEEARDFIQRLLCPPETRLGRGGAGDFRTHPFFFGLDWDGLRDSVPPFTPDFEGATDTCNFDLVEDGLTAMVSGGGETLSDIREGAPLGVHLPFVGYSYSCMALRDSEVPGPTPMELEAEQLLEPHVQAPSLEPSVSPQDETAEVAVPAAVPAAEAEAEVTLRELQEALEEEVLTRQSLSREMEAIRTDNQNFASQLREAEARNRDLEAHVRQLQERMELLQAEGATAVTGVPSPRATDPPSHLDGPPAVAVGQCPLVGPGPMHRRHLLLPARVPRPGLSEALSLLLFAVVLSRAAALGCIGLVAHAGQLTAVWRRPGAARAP
Description: kinase inhibition, DMPK.

Sequence of NEK6 (Q9HC98 whole entry, species assumed): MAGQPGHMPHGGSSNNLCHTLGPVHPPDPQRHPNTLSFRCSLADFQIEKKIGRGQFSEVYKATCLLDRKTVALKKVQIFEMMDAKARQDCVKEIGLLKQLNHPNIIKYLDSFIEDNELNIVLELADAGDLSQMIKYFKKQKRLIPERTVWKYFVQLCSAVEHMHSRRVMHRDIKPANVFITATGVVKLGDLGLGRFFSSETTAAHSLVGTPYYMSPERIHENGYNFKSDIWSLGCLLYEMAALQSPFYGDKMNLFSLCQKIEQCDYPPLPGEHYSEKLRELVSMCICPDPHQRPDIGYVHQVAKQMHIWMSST
Sequence of NEK7 (Q8TDX7 whole entry, species assumed): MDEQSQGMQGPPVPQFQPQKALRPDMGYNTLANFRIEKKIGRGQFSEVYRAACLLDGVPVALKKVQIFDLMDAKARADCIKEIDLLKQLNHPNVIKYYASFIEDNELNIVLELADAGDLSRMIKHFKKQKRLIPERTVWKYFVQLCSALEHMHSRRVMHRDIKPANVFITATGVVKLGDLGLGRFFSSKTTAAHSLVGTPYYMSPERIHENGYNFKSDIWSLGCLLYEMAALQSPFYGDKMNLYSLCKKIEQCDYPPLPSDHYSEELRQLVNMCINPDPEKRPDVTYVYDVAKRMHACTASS

Consider `COc1cc(N2CCOCC2)ccc1Nc1ncc2c(n1)N1c3ccccc3CC1C(=O)N2C` (stereo not drawn) [Compound I-33], for which the results for the IC50 on NEK2 and against NEK9 were 1000 to 5000 nM and 250 to 1000 nM, respectively.
Turning to `CCN1CCN(c2ccc(Nc3ncc4c(n3)n3c(cc5ccccc53)c(=O)n4C)cc2C(F)(F)F)CC1` [Compound I-25], the IC50 is not above 50 nM against NEK2 and 50 to 250 nM against NEK9.
For `COc1cc(N2CCN(C)CC2)ccc1Nc1ncc2c(n1)N1c3ccccc3CC1C(=O)N2C` (stereo not drawn) [Compound I-30], the IC50 at NEK2 was 250 to 1000 nM; against NEK9, 50 to 250 nM.
With `Cn1c(=O)c2cc3ccccc3n2c2nc(Nc3cnn(CCN4CCOCC4)c3)ncc21` [Compound I-10], the concentration for half-maximal inhibition (IC50) at NEK2 is 50 to 250 nM; at NEK6, not below 5000 nM; at NEK7, 1000 to 5000 nM; at CLK, 1000 to 5000 nM; on NEK9, 50 to 250 nM; against DMPK it was 250 to 1000 nM.
Turning to `CC(C)Oc1cc(N2CCC(O)CC2)ccc1Nc1ncc2c(n1)n1c(cc3ccccc31)c(=O)n2C` [Compound I-19], the IC50 is not below 5000 nM against NEK2; 1000 to 5000 nM on NEK6; 250 to 1000 nM against NEK7; not below 5000 nM against CLK; not below 5000 nM against NEK9; not below 5000 nM against DMPK.
In the case of `CCN1CCN(c2ccc(Nc3ncc4c(n3)n3c(cc5ccccc53)c(=O)n4C)c(OC)c2)CC1` [Compound I-15], the IC50 against NEK2 was not above 50 nM; against NEK6, 250 to 1000 nM; against NEK7, 250 to 1000 nM; at CLK, 250 to 1000 nM; at NEK9, 50 to 250 nM; against DMPK, 250 to 1000 nM.
With `COc1cc(C(=O)N2CCOCC2)ccc1Nc1ncc2c(n1)n1c(cc3ccccc31)c(=O)n2C` [Compound I-14], the IC50 at NEK2 is 50 to 250 nM; at NEK6 it was 1000 to 5000 nM; at NEK7 it was 50 to 250 nM; at CLK it was not below 5000 nM; on NEK9 it was not above 50 nM; on DMPK it was 250 to 1000 nM.
For the compound `CCn1c(=O)c2cc3ccccc3n2c2nc(Nc3ccc(N4CCN(C)CC4)cc3)ncc21` [Compound I-26], the IC50 at NEK2 and at NEK9 was 50 to 250 nM in each case.
`Cn1c(=O)c2cc3ccccc3n2c2nc(Nc3cnn(CC(F)F)c3)ncc21` [Compound I-11]: the IC50 against NEK2 was 250 to 1000 nM; on NEK6 it was not below 5000 nM; on NEK7, 1000 to 5000 nM; at CLK, not below 5000 nM; against NEK9 it was 50 to 250 nM; at DMPK, 1000 to 5000 nM.
On to `CN1C(=O)C2Cc3ccccc3N2c2nc(Nc3ccc(N4CCOCC4)cc3)ncc21` (stereo not drawn) [Compound I-32], for which the IC50 against NEK2 and on NEK9 was 50 to 250 nM throughout.
For the compound `CCN1CCN(c2ccc(Nc3ncc4c(n3)N3c5ccccc5CC3C(=O)N4C)cc2)CC1` (stereo not drawn) [Compound I-28], the IC50 on NEK2 was 50 to 250 nM; on NEK9 it was not above 50 nM.
Turning to `CN1C(=O)C2Cc3ccccc3N2c2nc(Nc3ccc(N4CCC(N5CCOCC5)CC4)cc3)ncc21` (stereo not drawn) [Compound I-29], the 50% inhibitory concentration (IC50) at NEK2 and at NEK9 was not above 50 nM in each case.
`COc1cc(N2CCC(C(N)=O)CC2)ccc1Nc1ncc2c(n1)n1c(cc3ccccc31)c(=O)n2C` [Compound I-20]: the IC50 on NEK2 was in the range of 50 to 250 nM; at NEK6 it was 250 to 1000 nM; on NEK7, 50 to 250 nM; against CLK it was 1000 to 5000 nM; against NEK9 it was 50 to 250 nM; against DMPK it was 1000 to 5000 nM.
`Cn1c(=O)c2cc3ccccc3n2c2nc(Nc3cc(N4CCOCC4)cc(N4CCOCC4)c3)ncc21` [Compound I-21]: the IC50 at NEK2 was not above 50 nM; against NEK6, 250 to 1000 nM; against NEK7, 250 to 1000 nM; against CLK, 250 to 1000 nM; against NEK9, 50 to 250 nM; against DMPK it was 250 to 1000 nM.
`Cn1c(=O)c2cc3ccccc3n2c2nc(Nc3ccc(N4CCOCC4)nc3)ncc21` [Compound I-22]: the IC50 against NEK2 lay within 50 to 250 nM; against NEK6, 1000 to 5000 nM; at NEK7 it was 250 to 1000 nM; against CLK it was 250 to 1000 nM; against NEK9 it was 50 to 250 nM; on DMPK, 250 to 1000 nM.
For `CCn1c(=O)c2cc3ccccc3n2c2nc(Nc3ccc(N4CCN(C)CC4)c(C(F)(F)F)c3)ncc21` [Compound I-27], the IC50 against NEK2 and at NEK9 was 250 to 1000 nM each time.
For the compound `CN1CCN(C2CCN(c3ccc(Nc4ncc5c(n4)n4c(cc6ccccc64)c(=O)n5C)cn3)CC2)CC1` [Compound I-23], the IC50 was not above 50 nM at NEK2; 250 to 1000 nM on NEK6; 250 to 1000 nM on NEK7; 50 to 250 nM against CLK; not above 50 nM at NEK9; 50 to 250 nM at DMPK.
For the compound `CN1CCN(c2ccc(Nc3ncc4c(n3)n3c(cc5ccccc53)c(=O)n4C)c(C(F)(F)F)c2)CC1` [Compound I-13], the IC50 at NEK2 was 50 to 250 nM; against NEK6 it was 1000 to 5000 nM; against NEK7, 250 to 1000 nM; against CLK, not below 5000 nM; against NEK9, 1000 to 5000 nM; at DMPK, not below 5000 nM.
As for `COc1cc(C(=O)N2CCN(C)CC2)ccc1Nc1ncc2c(n1)n1c(cc3ccccc31)c(=O)n2C` [Compound I-12], the IC50 on NEK2 lay in the range of 50 to 250 nM; against NEK6, 1000 to 5000 nM; at NEK7, 1000 to 5000 nM; against CLK, 250 to 1000 nM; against NEK9, 1000 to 5000 nM; against DMPK, 1000 to 5000 nM.
For `CN1C(=O)C2Cc3ccccc3N2c2nc(Nc3cc(N4CCOCC4)cc(N4CCOCC4)c3)ncc21` (stereo not drawn) [Compound I-31], the IC50 at NEK2 and against NEK9 was 50 to 250 nM in each case.
Consider `CCOc1cc(N2CCC(O)CC2)ccc1Nc1ncc2c(n1)n1c(cc3ccccc31)c(=O)n2C` [Compound I-18], for which the IC50 against NEK2 is 50 to 250 nM; on NEK6, 250 to 1000 nM; against NEK7 it was 250 to 1000 nM; on CLK, not below 5000 nM; against NEK9, 250 to 1000 nM; against DMPK it was not below 5000 nM.
`COc1cc(N2CCC(N3CCN(C)CC3)CC2)ccc1Nc1ncc2c(n1)n1c(cc3ccccc31)c(=O)n2C` [Compound I-9]: the IC50 on NEK2 is 50 to 250 nM; at NEK6, 250 to 1000 nM; against NEK7, 250 to 1000 nM; against CLK, 250 to 1000 nM; against NEK9 it was not above 50 nM; at DMPK, 1000 to 5000 nM.
As for `CCN1CCN(c2ccc(Nc3ncc4c(n3)n3c(cc5ccccc53)c(=O)n4C)cc2)CC1` [Compound I-16], the concentration for half-maximal inhibition (IC50) on NEK2 is not above 50 nM; against NEK6, 250 to 1000 nM; on NEK7, 250 to 1000 nM; against CLK, 50 to 250 nM; against NEK9 it was not above 50 nM; against DMPK it was 50 to 250 nM.
